Data taken from ChEMBL document CHEMBL1158544, “The evaluation of quinonoid compounds against Trypanosoma cruzi: synthesis of imidazolic anthraquinones, nor-beta-lapachone derivatives and beta-lapachone-based 1,2,3-triazoles” (Bioorg Med Chem, 2010).

Tests used:
PBMC = test: Cytotoxicity against human PBMC after 72 hrs by alamar blue assay; assay type: cell-based
Trypanosoma cruzi = test: Antitrypanosomal activity against Trypanosoma cruzi Y blood stream trypomastigotes after 24 hrs; assay type: functional, organism-based

Structure (SMILES) | IC50 (PBMC) | IC50 (Trypanosoma cruzi)
CC1(C)OC2=C(C(=O)C(=O)c3ccccc32)[C@H](N=[N+]=[N-])[C@H]1Br | 2100 nM | 23.4 µM
CC1(C)OC2=C(C(=O)C(=O)c3ccccc32)[C@H](n2cc(-c3ccc(Br)cc3)nn2)[C@H]1Br | 2100 nM | 440 µM
CC1(C)OC2=C(C(=O)C(=O)c3ccccc32)[C@H](n2cc(-c3ccc(F)cc3)nn2)[C@H]1Br | 2100 nM | 220 µM
COc1ccc(-c2cn([C@H]3C4=C(OC(C)(C)[C@@H]3Br)c3ccccc3C(=O)C4=O)nn2)cc1 | 2100 nM | 106 µM
CC(C)=CCC1=C(OC2(CC=C(C)C)C(=O)C(=O)c3ccccc3C2=O)C(=O)c2ccccc2C1=O (configuration not stated) | 12000 nM | 233 µM
O=C1c2ccccc2C(=O)c2c1ccc1nc(-c3ccc(-c4ccccc4)cc3)[nH]c21 | 12000 nM | > 4000 µM
O=C1c2ccccc2C(=O)c2c1ccc1nc(-c3cccc4ccccc34)[nH]c21 | 2100 nM | > 4000 µM
CC1(C)OC2=C(C(=O)c3ccccc3C2=O)[C@@H](N=[N+]=[N-])[C@@H]1Br | 2100 nM | 248 µM
CC1(C)OC2=C(C(=O)C(=O)c3ccccc32)C1Nc1ccc(Br)cc1Br (configuration not stated) | 2100 nM | 24.9 µM
CC1(C)OC2=C(C(=O)C(=O)c3ccccc32)C1Nc1ccc(Cl)c(Cl)c1 (configuration not stated) | 2100 nM | 43.8 µM
COc1ccc(NC2C3=C(OC2(C)C)c2ccccc2C(=O)C3=O)c([N+](=O)[O-])c1 (configuration not stated) | 2100 nM | 59.6 µM
Cc1ccc([N+](=O)[O-])cc1NC1C2=C(OC1(C)C)c1ccccc1C(=O)C2=O (configuration not stated) | 12000 nM | 284 µM
CC1(C)OC2=C(C(=O)C(=O)c3ccccc32)[C@H](n2cc(-c3ccccc3)nn2)[C@H]1Br | 2100 nM | 313 µM
CC(C)=CC1=C(O)C(=O)c2ccccc2C1=O | 2100 nM | 
CC1(C)OC2=C(C(=O)C(=O)c3ccccc32)C1OC1CCCCC1 (configuration not stated) | 2100 nM | 558 µM
CC1(C)OC2=C(C(=O)C(=O)c3ccccc32)C1Nc1ccccc1[N+](=O)[O-] (configuration not stated) | 2100 nM | 55.6 µM
Cc1cc([N+](=O)[O-])ccc1NC1C2=C(OC1(C)C)c1ccccc1C(=O)C2=O (configuration not stated) | 2100 nM | 156 µM
CC(C)OC1C2=C(OC1(C)C)c1ccccc1C(=O)C2=O (configuration not stated) | 2100 nM | 268 µM
CC(C)COC1C2=C(OC1(C)C)c1ccccc1C(=O)C2=O (configuration not stated) | 2100 nM | 47.2 µM
CC1(C)OC2=C(C(=O)C(=O)c3ccccc32)C1Nc1ccc(F)c([N+](=O)[O-])c1 (configuration not stated) |  | 526 µM
O=C1c2ccccc2C(=O)c2c1ccc1nc(-c3ccccc3)[nH]c21 | 12000 nM | > 2000 µM
Cc1ccc(-c2nc3ccc4c(c3[nH]2)C(=O)c2ccccc2C4=O)cc1 | 12000 nM | > 4000 µM
CC(C)=CCC1=C(O)C(=O)c2ccccc2C1=O [LAPACHOL] | 2100 nM | 
CC1(C)CCC2=C(O1)c1ccccc1C(=O)C2=O [LAPACHONE] | 2100 nM | 392 µM
CC1(C)CC2=C(O1)c1ccccc1C(=O)C2=O [NOR-BETA-LAPACHONE] | 2100 nM | > 4800 µM
